Results on 17 molecules are retold here after PubChem BioAssay (NCI).

Assay in all cases: NCI tumour cell line growth inhibition, 48 h
The test system of experiment [1] is K-562 leukemia.
Experiment [2] has as its system HS 578T breast.
The subject of experiment [3] is MOLT-4 leukemia.
In experiment [4] the test system is T-47D breast.
In experiment [5] the test system is SNB-19 CNS.

Several values for one entry are separate records, joined by “and”; a condition that tells them apart may be missing. Identical values can stand only once.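 Tested at 5 concentrations; 48 h exposure; 96-well plates; endpoints linearly interpolated, else capped at highest concentration. The concentration for 50% growth inhibition is given as GI50. TGI: total growth inhibition.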

Consider `O=C(Nc1cccc(C(F)(F)F)c1)Nc1cc(S(=O)(=O)NC2CC2)ccc1-c1ccsc1`, for which the GI50 in experiment [1] is 3.42 µM; in experiment [2], 8.96 µM; in experiment [3], 3.02 µM; in experiment [4], 3.16 µM; in experiment [5], 2.99 µM. For the same molecule, the TGI in experiment [1] is 13.5 µM; in experiment [2], 35.8 µM; in experiment [3] it was 9.53 µM; in experiment [4], 15 µM; in experiment [5], 13 µM.
As to `Cc1ccc(S(=O)(=O)NCc2cccc([N+](=O)[O-])c2)cc1`, the TGI in experiment [2], in experiment [3], in experiment [4] and in experiment [5] was over 100 µM in each case.
With `C=CCCC1(CCP(=O)(c2ccccc2)c2ccccc2)OCCO1`, the TGI in experiment [1], in experiment [2], in experiment [3] and in experiment [5] was over 100 µM throughout.
As to `Oc1ccc(/C=N/Nc2nnc(N/N=C/c3ccc(O)cc3O)c3ccccc23)c(O)c1`, the GI50 was 0.346 µM in experiment [1], 0.5 µM in experiment [2], 0.432 µM in experiment [3] and 0.384 µM in experiment [4]. For the same molecule, the TGI in experiment [2] was 0.954 µM; in experiment [4] it was 0.633 µM and 1.64 µM; in experiment [5] it was 7.19 µM.
Take `CC(C)C12CCC3(CCC4C(C)(C(=O)O)CCCC4(C)C3C1)C(CN)C2` (stereo unspecified): the TGI in experiment [2], in experiment [4] and in experiment [5] was over 100 µM throughout.
For the molecule `Clc1ccc(N=CNc2ccc(-c3nc4ccccc4[nH]3)cc2)cc1`, the GI50 in experiment [1] was 1.56 µM; in experiment [2], 91.9 µM; in experiment [3], over 100 µM; in experiment [4] it was 42.6 µM; in experiment [5] it was over 100 µM. Also, the TGI in experiment [1] is 17.2 µM; in experiment [2] it was over 100 µM; in experiment [3], over 100 µM; in experiment [4], over 100 µM; in experiment [5], over 100 µM.
Consider `COc1cc([C@H]2c3cc(O)c(OC)cc3C[C@]3(O)[C@@H]2CO[C@@H]3O)ccc1O`, for which the TGI in experiment [1], in experiment [2], in experiment [3], in experiment [4] and in experiment [5] was over 100 µM each time.
Take `COC(=O)C(NC(=O)c1ccccc1)c1ccc(OC)c(I)c1` (stereo unspecified): the GI50 was 35.6 µM in experiment [1]; 77.1 µM in experiment [2]; 48.9 µM in experiment [3]; 36.6 µM in experiment [4]; over 100 µM in experiment [5]. For the same molecule, the TGI in experiment [1], in experiment [2], in experiment [3], in experiment [4] and in experiment [5] was over 100 µM in each case.
Consider `Cc1cccc(Cc2cnc(NC(=O)CCCOc3ccc(Cl)cc3)s2)c1`, for which the GI50 in experiment [1] is 3.84 µM; in experiment [2] it was 5.32 µM; in experiment [3], 5.72 µM; in experiment [4], 5.82 µM; in experiment [5], over 100 µM. Moreover, the TGI in experiment [1], in experiment [2], in experiment [3], in experiment [4] and in experiment [5] was over 100 µM in each case.
Consider `CC(C)c1nc(Cl)c(Cl)c(Cl)n1`, for which the TGI in experiment [1] was over 100 µM; in experiment [2], 14 µM; in experiment [3], 11.4 µM; in experiment [4], 42.7 µM; in experiment [5] it was 36.2 µM.
On to `CCn1c(SC)nnc1-c1cc2c([nH]c3ccccc32)c(-c2cccc(O)c2)n1`, for which the GI50 is 0.547 µM in experiment [1]; 1.97 µM in experiment [2]; 2.05 µM in experiment [3]; 1.78 µM in experiment [4]; 4.16 µM in experiment [5]. In addition, the TGI is over 100 µM in experiment [1]; 9.76 µM in experiment [2]; over 100 µM in experiment [3]; 22.5 µM in experiment [4]; 47 µM in experiment [5].
On to `CC(C)(CCc1nc2ccccc2[nH]1)C(=O)O`, for which the TGI in experiment [1], in experiment [2], in experiment [3], in experiment [4] and in experiment [5] was over 100 µM in each case.
Turning to `Cc1cc(C2(c3cc(C)c(O)c4ncccc34)OC(=O)c3ccccc32)c2cccnc2c1O`, the TGI in experiment [1] and in experiment [3] was over 100 µM in each case. For the same molecule, the GI50 in experiment [5] was 0.0365 µM.
With `COc1ccc(C[C@H](N)C(=O)N[C@@H]2[C@@H](CO)OC(n3cnc4c(N(C)C)ncnc43)[C@@H]2O)cc1` (stereo partly specified), the GI50 in experiment [1] was 0.293 µM; in experiment [2] it was 0.304 µM; in experiment [3], 0.275 µM; in experiment [4] it was 0.137 µM; in experiment [5], 0.339 µM. In addition, the TGI in experiment [1] was determined as 1.46 µM; in experiment [2], 2.11 µM; in experiment [3], 1.77 µM; in experiment [4] it was 0.565 µM; in experiment [5] it was 1.71 µM.
Regarding `CN(C)C(=O)c1cc2cnc(Nc3ccc(N4CCNCC4)cn3)nc2n1C1CCCC1`, the GI50 in experiment [1] was 17.6 µM; in experiment [2] it was 13.8 µM; in experiment [3] it was 1.8 µM; in experiment [4], 12.9 µM; in experiment [5] it was 14.2 µM. In addition, the TGI in experiment [1] was over 100 µM; in experiment [2], 53.5 µM; in experiment [3] it was 34.5 µM; in experiment [4], 91.8 µM; in experiment [5] it was over 100 µM.
For `N#Cc1c(N)nc(N2CCOCC2)c(C#N)c1-c1ccc(Cl)cc1Cl`, the GI50 was 23.9 µM in experiment [1]; 15.8 µM in experiment [2]; 24.2 µM in experiment [3]; 12.9 µM in experiment [4]; 15.9 µM in experiment [5]. In addition, the TGI in experiment [1] is 99.1 µM; in experiment [2], 45.9 µM; in experiment [3], over 100 µM; in experiment [4], 81.4 µM; in experiment [5], 60.9 µM.
Regarding `CS(=O)(=O)Nc1ccc(Nc2c3ccccc3nc3cc(Cl)ccc23)cc1`, the GI50 in experiment [1] is 2.11 µM; in experiment [2] it was 2.83 µM; in experiment [3], 0.214 µM; in experiment [4], 0.987 µM; in experiment [5], 1.51 µM. The TGI in experiment [1] was over 48.6 µM; in experiment [2], 40.4 µM; in experiment [3], 16.2 µM; in experiment [4], 13.3 µM; in experiment [5], 17.5 µM.
